Assay results: ChEMBL document CHEMBL1201862, “PubChem BioAssay data set” (2004)
Active and inactive are the calls of the source.

Tests used:
Estrogen receptor beta = Estrogen receptor beta (Homo sapiens, UniProt Q92731);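 further: recombinant ER-beta bound to coactivator SRC1 peptide in presence of estradiol agonist; inhibitors block coactivator peptide binding and lower the FRET signal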
Coagulation factor XII = target: T1, Coagulation factor XII (Homo sapiens, UniProt P00748); format: functional;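 further: activated factor XIIa alpha cleaving a fluorogenic AMC peptide substrate; inhibitor potency from loss of enzyme activity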
T1 sequence (P00748 whole entry): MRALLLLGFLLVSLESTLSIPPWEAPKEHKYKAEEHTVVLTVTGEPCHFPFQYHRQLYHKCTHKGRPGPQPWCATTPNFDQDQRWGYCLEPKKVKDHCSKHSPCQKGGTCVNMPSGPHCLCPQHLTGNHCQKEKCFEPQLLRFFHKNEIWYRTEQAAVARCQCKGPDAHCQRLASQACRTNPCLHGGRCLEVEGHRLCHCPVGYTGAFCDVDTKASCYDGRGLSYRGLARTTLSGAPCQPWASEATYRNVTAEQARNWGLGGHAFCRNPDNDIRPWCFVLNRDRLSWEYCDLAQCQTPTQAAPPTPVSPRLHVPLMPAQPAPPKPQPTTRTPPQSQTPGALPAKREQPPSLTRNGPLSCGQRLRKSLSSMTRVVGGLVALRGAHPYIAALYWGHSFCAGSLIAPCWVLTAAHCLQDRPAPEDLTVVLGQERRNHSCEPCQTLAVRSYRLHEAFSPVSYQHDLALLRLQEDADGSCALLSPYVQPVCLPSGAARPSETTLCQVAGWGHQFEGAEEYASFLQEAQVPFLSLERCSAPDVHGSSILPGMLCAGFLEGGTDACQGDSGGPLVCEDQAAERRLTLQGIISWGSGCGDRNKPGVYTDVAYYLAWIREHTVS

[1] = Luminescence Cell-Based Dose Confirmation to Identify Activators of 5'UTR Stem-Loop Driven Alpha-Synuclein mRNA Translation in H4 Neuroglioblastoma Cells. [Related pubchem assays: 1829 (Project Summary), 1814 (Primary HTS)]; format: functional
[2] = Luminescence Cell-Based Dose Response to Identify Activators of Luciferase Translation or Activity in H4-C Neuroglioblastoma Cells. [Related pubchem assays: 1829 (Project Summary), 1814 (Primary HTS)]; format: functional
[3] = target: Peroxisome proliferator-activated receptor gamma/Nuclear receptor coactivator 2 (Homo sapiens, UniProt P37231); assay: TR-FRET dose response biochemical High Throughput Screening assay for agonists of the steroid receptor coactivator 2 (SRC-2) recruitment by the peroxisome proliferator-activated receptor gamma (PPAR gamma): non-selective agonists. [Related pubchem assays: 1297, 1032 ]; format: functional
H4 = assay: Luminescence Cell-Based Dose Response HTS to Identify Activators of 5'UTR Stem-Loop Driven Prion Protein mRNA Translation in H4 Neuroglioblastoma Cells. [Related pubchem assays: 1829 (Project Summary), 1814 (Primary HTS)]; format: functional; conditions: Homo sapiens
[4] = Luminescence Cell-Based Dose Response HTS to Identify Activators of Luciferase Translation or Activity in H4 […] Cells. [Related pubchem assays: 1829 (Project Summary), 1814 (Primary HTS)]; format: functional
[5] = target: Peroxisome proliferator-activated receptor gamma/Nuclear receptor coactivator 3 (Homo sapiens, UniProt P37231); assay: TR-FRET dose response biochemical High Throughput Screening assay for agonists of the steroid receptor coactivator 3 (SRC-3) recruitment by the peroxisome proliferator-activated receptor gamma (PPAR gamma): non-selective agonists. [Related pubchem assays: 1301 (Confirmation screen.), 1048 (Primary screen.)]; format: functional
[6] = target: Peroxisome proliferator-activated receptor gamma/Nuclear receptor coactivator 1 (Homo sapiens, UniProt P37231); assay: TR-FRET dose response biochemical High Throughput Screening assay for agonists of the steroid receptor coactivator 1 (SRC-1) recruitment by the peroxisome proliferator-activated receptor gamma (PPAR gamma): non-selective agonists. [Related pubchem assays (depositor defined):AID1300, AID1808, AID504735, AID631]; format: protein assay
[7] = Luminescence Cell-Based Dose Response to Identify Activators of 5'UTR Stem-Loop Driven Prion Protein mRNA Translation in H4-C Neuroglioblastoma Cells. [Related pubchem assays: 1829 (Project Summary), 1814 (Primary HTS)]; format: functional
[8] = HPDE-C7 pancreatic duct cell viability loss – fluorescence, HTS (AID 430); format: functional, cell-based; conditions: Homo sapiens
[9] = viability loss of HPDE-C7K cells – cell-based, fluorescence, HTS, primary screen (AID 431); format: functional; conditions: Homo sapiens
[10] = target: T2, Voltage-gated N-type calcium channel alpha-1B subunit/Amyloid beta A4 precursor protein-binding family A member 1 (Homo sapiens, UniProt Q00975+Q02410); format: protein assay
T2 sequence (Q00975 whole entry, the tested form may be a part): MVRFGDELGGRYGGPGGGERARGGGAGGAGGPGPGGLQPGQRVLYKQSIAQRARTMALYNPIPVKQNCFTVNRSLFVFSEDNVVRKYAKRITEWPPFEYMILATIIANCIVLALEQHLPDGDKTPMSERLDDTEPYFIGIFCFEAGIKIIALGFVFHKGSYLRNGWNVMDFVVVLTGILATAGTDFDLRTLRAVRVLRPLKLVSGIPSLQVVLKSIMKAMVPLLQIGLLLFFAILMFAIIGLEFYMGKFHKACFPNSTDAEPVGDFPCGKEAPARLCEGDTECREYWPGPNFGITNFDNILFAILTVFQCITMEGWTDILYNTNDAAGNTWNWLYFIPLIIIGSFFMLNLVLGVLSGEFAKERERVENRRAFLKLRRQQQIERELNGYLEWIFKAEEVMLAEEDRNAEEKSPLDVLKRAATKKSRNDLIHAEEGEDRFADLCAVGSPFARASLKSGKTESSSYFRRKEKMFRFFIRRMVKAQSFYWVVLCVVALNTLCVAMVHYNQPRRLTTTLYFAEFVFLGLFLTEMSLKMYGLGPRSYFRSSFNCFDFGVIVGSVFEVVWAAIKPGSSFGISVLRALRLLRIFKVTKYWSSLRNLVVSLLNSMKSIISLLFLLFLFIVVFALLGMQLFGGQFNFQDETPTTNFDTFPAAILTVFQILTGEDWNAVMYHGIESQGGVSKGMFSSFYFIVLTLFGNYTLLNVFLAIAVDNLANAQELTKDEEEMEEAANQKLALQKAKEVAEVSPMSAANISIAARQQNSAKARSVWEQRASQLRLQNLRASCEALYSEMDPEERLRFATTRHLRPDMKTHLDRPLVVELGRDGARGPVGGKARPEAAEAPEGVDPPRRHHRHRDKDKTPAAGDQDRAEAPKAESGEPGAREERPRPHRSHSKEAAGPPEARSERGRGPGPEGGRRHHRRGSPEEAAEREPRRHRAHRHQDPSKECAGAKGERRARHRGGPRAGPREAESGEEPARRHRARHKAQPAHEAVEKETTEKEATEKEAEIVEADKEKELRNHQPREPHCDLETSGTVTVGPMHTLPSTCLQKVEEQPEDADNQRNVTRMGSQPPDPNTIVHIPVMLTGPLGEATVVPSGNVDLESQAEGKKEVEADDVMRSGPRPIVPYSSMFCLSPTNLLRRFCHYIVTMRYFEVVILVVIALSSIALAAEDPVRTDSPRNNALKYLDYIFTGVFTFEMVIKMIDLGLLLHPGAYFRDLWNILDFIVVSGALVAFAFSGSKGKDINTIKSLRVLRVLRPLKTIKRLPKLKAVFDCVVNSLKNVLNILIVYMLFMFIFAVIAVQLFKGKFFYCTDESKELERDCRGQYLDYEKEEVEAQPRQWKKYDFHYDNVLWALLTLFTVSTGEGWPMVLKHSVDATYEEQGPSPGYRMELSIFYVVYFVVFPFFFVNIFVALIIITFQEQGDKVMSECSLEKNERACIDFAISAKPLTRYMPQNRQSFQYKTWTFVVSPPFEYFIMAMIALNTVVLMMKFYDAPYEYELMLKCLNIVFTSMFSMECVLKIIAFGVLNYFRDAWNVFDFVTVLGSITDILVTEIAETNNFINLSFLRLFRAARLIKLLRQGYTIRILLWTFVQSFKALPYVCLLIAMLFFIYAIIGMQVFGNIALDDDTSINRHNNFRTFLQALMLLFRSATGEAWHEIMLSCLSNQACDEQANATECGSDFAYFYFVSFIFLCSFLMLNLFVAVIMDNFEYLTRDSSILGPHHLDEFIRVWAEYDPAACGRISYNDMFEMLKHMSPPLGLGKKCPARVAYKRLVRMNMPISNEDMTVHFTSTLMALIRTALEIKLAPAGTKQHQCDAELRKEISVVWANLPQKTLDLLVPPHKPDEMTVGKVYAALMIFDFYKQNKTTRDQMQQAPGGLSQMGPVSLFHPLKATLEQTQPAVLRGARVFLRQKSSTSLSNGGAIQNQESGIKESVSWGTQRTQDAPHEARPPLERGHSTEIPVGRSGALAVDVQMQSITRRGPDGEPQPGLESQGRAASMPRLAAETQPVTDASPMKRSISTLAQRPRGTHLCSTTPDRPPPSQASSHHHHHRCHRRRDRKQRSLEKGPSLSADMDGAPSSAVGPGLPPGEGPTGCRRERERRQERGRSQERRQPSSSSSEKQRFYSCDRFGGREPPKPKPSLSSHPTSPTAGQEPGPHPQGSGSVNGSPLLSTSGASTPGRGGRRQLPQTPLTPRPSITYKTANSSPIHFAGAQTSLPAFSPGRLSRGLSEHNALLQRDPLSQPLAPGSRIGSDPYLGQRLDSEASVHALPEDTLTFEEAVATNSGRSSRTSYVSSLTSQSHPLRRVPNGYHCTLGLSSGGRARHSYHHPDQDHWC
T2 sequence (Q02410 whole entry, the tested form may be a part): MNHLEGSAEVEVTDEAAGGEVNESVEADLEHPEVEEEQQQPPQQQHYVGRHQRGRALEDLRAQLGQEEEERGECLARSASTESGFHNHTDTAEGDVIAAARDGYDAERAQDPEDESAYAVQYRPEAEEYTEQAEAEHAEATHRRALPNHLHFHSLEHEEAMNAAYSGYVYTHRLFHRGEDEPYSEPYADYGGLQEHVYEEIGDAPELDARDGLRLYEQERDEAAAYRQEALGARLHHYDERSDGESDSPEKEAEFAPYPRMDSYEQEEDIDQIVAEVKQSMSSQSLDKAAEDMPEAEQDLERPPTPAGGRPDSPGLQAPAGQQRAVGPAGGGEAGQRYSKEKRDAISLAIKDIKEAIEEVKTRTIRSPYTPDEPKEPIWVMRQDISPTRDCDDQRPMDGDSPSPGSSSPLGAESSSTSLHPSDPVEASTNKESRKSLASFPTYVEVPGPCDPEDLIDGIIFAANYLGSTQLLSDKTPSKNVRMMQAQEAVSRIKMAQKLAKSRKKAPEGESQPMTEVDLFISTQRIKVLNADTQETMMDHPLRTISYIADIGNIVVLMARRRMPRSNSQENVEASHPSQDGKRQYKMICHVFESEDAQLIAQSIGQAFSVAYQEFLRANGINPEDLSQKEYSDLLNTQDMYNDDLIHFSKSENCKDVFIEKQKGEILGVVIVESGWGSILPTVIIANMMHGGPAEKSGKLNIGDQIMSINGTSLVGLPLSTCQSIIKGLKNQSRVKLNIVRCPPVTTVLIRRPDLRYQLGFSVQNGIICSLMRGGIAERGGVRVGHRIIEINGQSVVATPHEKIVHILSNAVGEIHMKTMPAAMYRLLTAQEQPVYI

[11] = target: T3, Polyadenylate-binding protein 1 (Homo sapiens, UniProt P11940); assay: MLLE domain peptide-binding blockers, IC50 – biochemical, fluorescence polarization, FITC-PAM2 peptide, dose response (AID 602259); format: functional; conditions: read-out: IC50_Mean
[12] = target: T3, Polyadenylate-binding protein 1; assay: MLLE binding blockers, Cy5 peptide tracer – biochemical, fluorescence polarization, Cy5-PAM2 peptide, secondary, miRNA deadenylation inhibitor project, dose response (AID 602260); format: functional; conditions: read-out: IC50_Mean
[13] = target: T2, Voltage-gated N-type calcium channel alpha-1B subunit/Amyloid beta A4 precursor protein-binding family A member 1; format: protein assay; remark: listed apart in the source
[14] = target: Disintegrin and metalloproteinase domain-containing protein 17 (Homo sapiens, UniProt P78536); assay: exosite inhibitors of ADAM17, dose response, biochemical (AID 743260)
Chain of Disintegrin and metalloproteinase domain-containing protein 17 (P78536 whole entry, the tested form may be a part): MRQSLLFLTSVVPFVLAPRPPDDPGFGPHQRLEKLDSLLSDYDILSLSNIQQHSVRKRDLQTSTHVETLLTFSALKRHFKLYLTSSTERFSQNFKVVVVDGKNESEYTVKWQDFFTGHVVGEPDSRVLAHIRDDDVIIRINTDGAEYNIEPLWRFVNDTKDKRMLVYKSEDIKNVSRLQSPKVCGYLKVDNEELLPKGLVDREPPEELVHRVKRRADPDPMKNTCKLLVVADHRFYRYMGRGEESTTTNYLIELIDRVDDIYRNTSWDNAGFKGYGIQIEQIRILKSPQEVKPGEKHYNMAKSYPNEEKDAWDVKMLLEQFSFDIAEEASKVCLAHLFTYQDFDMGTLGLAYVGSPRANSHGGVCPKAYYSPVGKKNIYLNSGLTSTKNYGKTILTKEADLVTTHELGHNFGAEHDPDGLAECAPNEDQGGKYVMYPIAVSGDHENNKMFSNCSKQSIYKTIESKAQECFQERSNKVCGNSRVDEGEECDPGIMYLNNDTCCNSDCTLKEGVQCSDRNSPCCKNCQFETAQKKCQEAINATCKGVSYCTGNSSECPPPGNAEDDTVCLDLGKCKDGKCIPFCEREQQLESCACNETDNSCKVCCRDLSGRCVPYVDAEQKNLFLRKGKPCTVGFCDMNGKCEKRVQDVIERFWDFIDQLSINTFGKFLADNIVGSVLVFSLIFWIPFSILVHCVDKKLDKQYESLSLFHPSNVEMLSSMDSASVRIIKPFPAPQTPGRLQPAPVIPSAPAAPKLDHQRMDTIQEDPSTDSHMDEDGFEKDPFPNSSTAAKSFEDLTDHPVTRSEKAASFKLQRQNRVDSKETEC

[15] = Luminescence Cell-Based Dose Retest to Confirm Inhibitors of Cancer Stem Cells. [Related pubchem assays (depositor defined):AID2717, AID2721]; format: functional; conditions: Homo sapiens
[16] = inhibition of ADAM10 peptide cleavage – biochemical, FRET peptide substrate, recombinant human ADAM10, selectivity assay for ADAM17 exosite inhibitor project, dose response (AID 743259);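 further: ADAM10 enzyme cleaving a FRET peptide substrate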
[17] = target: T4, Histone-lysine N-methyltransferase NSD2 (Homo sapiens, UniProt O96028); format: biochemical
T4 sequence (O96028 whole entry): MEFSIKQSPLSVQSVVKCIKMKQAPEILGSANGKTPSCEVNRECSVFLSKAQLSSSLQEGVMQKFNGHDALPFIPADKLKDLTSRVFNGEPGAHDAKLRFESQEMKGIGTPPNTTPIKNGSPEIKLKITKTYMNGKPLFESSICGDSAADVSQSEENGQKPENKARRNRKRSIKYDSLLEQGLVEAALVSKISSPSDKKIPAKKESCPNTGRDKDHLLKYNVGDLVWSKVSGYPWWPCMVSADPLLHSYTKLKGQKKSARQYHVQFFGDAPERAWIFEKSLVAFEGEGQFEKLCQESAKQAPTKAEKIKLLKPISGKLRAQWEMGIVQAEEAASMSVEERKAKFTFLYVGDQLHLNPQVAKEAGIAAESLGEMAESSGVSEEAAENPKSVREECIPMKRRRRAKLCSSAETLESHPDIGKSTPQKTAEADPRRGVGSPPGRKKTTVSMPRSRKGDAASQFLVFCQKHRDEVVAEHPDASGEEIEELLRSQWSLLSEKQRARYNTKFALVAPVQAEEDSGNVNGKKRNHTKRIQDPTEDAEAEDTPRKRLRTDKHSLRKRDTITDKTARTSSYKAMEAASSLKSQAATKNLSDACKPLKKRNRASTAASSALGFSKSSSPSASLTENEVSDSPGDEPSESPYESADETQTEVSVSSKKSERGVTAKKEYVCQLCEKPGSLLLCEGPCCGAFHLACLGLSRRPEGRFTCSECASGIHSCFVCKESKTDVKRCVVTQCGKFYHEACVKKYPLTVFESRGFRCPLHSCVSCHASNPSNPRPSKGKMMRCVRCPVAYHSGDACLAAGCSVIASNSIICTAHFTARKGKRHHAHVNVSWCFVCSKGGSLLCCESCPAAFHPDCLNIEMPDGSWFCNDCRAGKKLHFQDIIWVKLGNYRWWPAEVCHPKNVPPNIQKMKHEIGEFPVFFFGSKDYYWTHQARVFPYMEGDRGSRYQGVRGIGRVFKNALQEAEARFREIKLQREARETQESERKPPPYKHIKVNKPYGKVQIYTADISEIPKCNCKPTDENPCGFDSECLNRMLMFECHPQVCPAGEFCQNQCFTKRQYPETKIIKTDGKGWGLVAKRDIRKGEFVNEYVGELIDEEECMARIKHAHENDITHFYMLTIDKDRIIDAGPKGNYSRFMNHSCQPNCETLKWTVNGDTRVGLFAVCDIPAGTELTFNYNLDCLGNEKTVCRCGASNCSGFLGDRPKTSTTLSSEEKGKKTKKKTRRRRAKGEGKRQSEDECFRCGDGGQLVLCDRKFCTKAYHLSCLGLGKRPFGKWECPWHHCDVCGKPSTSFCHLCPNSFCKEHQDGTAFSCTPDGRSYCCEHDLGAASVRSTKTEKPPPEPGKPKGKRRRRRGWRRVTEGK

Cytochrome P450 3A4 = Cytochrome P450 3A4 (Homo sapiens, UniProt P08684);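 further: CYP3A4 tested as one member of a cytochrome P450 panel screen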
[18] = viability of uninfected HEp-2 cells – cell-based, HTS, cytotoxicity control for RSV inhibitor project, dose response (AID 2410); format: functional; conditions: human respiratory syncytial virus
[19] = Luminescence Cell-Based Dose Confirmation HTS to Identify Activators of 5'UTR Stem-Loop Driven Alpha-Synuclein mRNA Translation in H4 Neuroglioblastoma Cells. [Related pubchem assays: 1829 (Project Summary), 1814 (Primary HTS)]; format: functional
[20] = viability of HCT116 lacking mutant beta-catenin – cell-based, human colon tumor, dose response (AID 1045); format: functional;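 further: HCT116 colon tumor cells with beta catenin knocked out; cells exposed to compound for 60 hours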
[21] = viability of PTEN-deleted HCT116 cells – cell-based, HCT116 PTEN knockout, dose response (AID 1047); format: functional;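 further: HCT116 colon tumor cells with PTEN knocked out; cells exposed to compound for 60 hours before readout; potency for loss of cell viability measured by luminescence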
[22] = target: FAD-linked sulfhydryl oxidase ALR (Homo sapiens, UniProt P55789); assay: ALR-catalysed DTT oxidation blockers – biochemical, H2O2 detection, luminescence, cherry-pick, dose response (AID 493248)
Chain of FAD-linked sulfhydryl oxidase ALR (P55789 whole entry): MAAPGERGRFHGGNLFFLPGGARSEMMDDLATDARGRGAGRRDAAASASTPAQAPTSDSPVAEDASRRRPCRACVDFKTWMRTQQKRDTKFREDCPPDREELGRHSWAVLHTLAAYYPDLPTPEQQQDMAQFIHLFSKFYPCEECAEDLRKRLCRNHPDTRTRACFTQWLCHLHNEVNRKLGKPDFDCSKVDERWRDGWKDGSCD

[23] = target: DNA dC->dU-editing enzyme APOBEC-3G (Homo sapiens, UniProt Q9HC16); assay: Dose Response confirmation of small molecule APOBEC3G DNA Deaminase Inhibitors via a fluorescence-based single-stranded DNA deaminase assay. [Related pubchem assays (depositor defined):AID493012, AID493028]; format: functional

Chain of Estrogen receptor beta (Q92731 whole entry): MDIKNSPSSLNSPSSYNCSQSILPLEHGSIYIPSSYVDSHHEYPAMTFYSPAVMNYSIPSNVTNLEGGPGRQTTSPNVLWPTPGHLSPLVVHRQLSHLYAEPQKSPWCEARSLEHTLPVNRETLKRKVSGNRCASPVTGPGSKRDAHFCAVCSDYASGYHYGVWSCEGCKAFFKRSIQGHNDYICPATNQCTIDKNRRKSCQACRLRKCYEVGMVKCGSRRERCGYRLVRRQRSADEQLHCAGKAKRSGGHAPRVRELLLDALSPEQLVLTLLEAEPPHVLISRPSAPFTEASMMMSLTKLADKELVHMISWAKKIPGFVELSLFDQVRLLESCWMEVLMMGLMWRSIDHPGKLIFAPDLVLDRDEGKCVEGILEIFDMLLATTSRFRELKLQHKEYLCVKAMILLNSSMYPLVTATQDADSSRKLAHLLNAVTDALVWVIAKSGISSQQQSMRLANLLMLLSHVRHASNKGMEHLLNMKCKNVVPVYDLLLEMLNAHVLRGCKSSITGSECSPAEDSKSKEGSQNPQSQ

COC(=O)Nc1c(-c2ccccc2)nc2ccc(C)cn12
IC50 (Estrogen receptor beta): > 50 µM (not active)

Fc1cc(F)c2nc(N3CCCC3)sc2c1
IC50 (Coagulation factor XII): > 50 µM (inactive)

Cc1oc2nc(SCC(=O)NCCCO)nc(N)c2c1C
IC50 (Estrogen receptor beta): > 50 µM (not active)

COc1ccc2c3nc4ccccc4c-3c(O)oc2c1
EC50 [1]: 0.393 µM (active) | EC50 [2]: 0.533 µM (active) | EC50 [3]: 8.33 µM (active) | EC50 (H4): 20.1 µM (inconclusive) | EC50 [4]: < 0.1 µM (active) | EC50 [5]: > 79.4 µM (not active) | EC50 [6]: 7.49 µM (active) | EC50 [7]: > 12 µM (not active)

COc1ccc(NC(=O)c2oc3ccccc3c2NC(=O)c2ccc(OC)c(OC)c2)c(OC)c1
EC50 [8]: > 20 µM (not active) | EC50 [9]: > 20 µM (not active)

COCCNC(=O)CSc1nnc2c(Cl)cc(Cl)cn12
IC50 (Coagulation factor XII): > 50 µM (inactive)

CCNC(=S)NC(=Nc1nc(C)cc(C)n1)NCc1cccnc1
IC50 [10]: > 50 µM (inactive) | IC50 [11]: > 66 µM (inactive) | IC50 [12]: > 66 µM (inactive) | IC50 [13]: 9.16 µM (active)

Cc1ccc(/C=C/C(=O)Nc2ccc(Oc3ccccc3)cc2)o1
IC50 [14]: > 69.6 µM (inactive) | AC50 [15]: 5.29 µM (active) | IC50 [16]: > 69.6 µM (inactive)

CCC(C)NCCCCOc1ccc(Cl)cc1C (stereo not given)
AC50 [17]: > 20 µM (inactive)

CC(C)CN(CC(C)C)C1=N/C(=C\c2ccco2)C(=O)N1c1ccccc1
AC50 (Cytochrome P450 3A4): inconclusive

Cn1c2c(c3ccccc31)CCSC2=O
CC50 [18]: > 50 µM (active) | IC50 (Coagulation factor XII): > 50 µM (inactive)

CC1CCN(C(=O)c2ccc3ccccc3c2)CC1
EC50 [1]: 0.449 µM (active) | EC50 [2]: 10.2 µM (active) | EC50 [19]: < 0.1 µM (active) | EC50 (H4): > 120 µM (not active) | EC50 [4]: 35 µM (active) | EC50 [7]: 1.09 µM (active)

CCN(CCNC(=O)C1CCN(Cc2nc(-c3ccc(Cl)cc3)oc2C)CC1)c1ccccc1
EC50 [20]: 6.26 µM (active) | EC50 [8]: > 20 µM (not active) | EC50 [21]: 6.02 µM (active) | EC50 [9]: > 20 µM (not active) | AC50 [22]: 4.08 µM (active)

COc1ccc(C2N(c3ccccc3)CCN2c2ccccc2)cc1O
IC50 (Coagulation factor XII): > 50 µM (inactive)

COc1ccc(-c2csc(NC(=O)COC(=O)c3ccco3)n2)cc1
EC50 [1]: > 12 µM (not active) | EC50 [2]: > 12 µM (not active) | EC50 [19]: 35.9 µM (active) | EC50 (H4): 0.188 µM (active) | EC50 [4]: 29 µM (active) | EC50 [7]: > 12 µM (not active)

COc1ccc(OC)c(C2CC(=O)N3CN(c4ccccc4)CSC3=C2C#N)c1 (stereo not given)
IC50 [10]: > 50 µM (inactive) | IC50 [13]: 6.54 µM (active) | IC50 [23]: 11.8 µM (active)

COc1ccc(-c2ccc(CN3C(C(C)C)C(=O)N(Cc4cn(Cc5ccco5)nn4)CCS3(=O)=O)cc2)cc1OC (stereo not given)
IC50 [14]: > 69.5 µM (inactive) | IC50 [16]: > 69.5 µM (inactive)

COc1ccc(/N=C2\SC(CC(=O)Nc3ccc(F)cc3)C(=O)N2Cc2ccco2)cc1 (stereo not given)
IC50 [14]: > 69.5 µM (inactive) | IC50 [16]: > 69.5 µM (inactive)
